# According to patent US20230404863A1, “MICRONEEDLE PATCH AND PREPARATION METHOD THEREFOR” (SUZHOU REVEDA MEDICAL BIOTECH CO., LTD., priority 2020, published 2023):
# Experiment: Stability of astaxanthin in patch vs aqueous solution (UV spectrophotometer, color)
# Assay type: physicochemical
# Settings: room temperature
# Excerpt: Astaxanthin and resveratrol are easily oxidized and are very unstable in water and in emulsions. Due to immiscibility of resveratrol with water, it was first hydrophilically modified, and its stability in patches and that in solutions was compared. The patches were made of astaxanthin and the hydrophilically modified resveratrol, and the solutions were aqueous solutions of astaxanthin and the hydrophilically modified resveratrol at the same concentrations.
smiles,measurement,setting,value
CC1=C(/C=C/C(C)=C/C=C/C(C)=C/C=C/C=C(C)/C=C/C=C(C)/C=C/C2=C(C)C(=O)[C@@H](O)CC2(C)C)C(C)(C)C[C@H](O)C1=O [astaxanthin],Content of astaxanthin after 6 days vs the beginning,"in aqueous solution at the same concentration, without avoiding exposure to light",significantly lower than that at the beginning
same,Color of astaxanthin after 6 days,in aqueous solution,became much lighter
